Measurements taken from patent US6765022B2, “Cyclohexylamine derivatives as subtype selective nmda receptor antagonists” (Warner-Lambert Company, priority 2000, dated 2004).
Counter-ions that a name gives are not always drawn.

Columns and labels:
[1] = target: T1, [3H]ifenprodil binding, adult rat forebrain membranes (NMDA receptor) (Rattus norvegicus, UniProt P35439+Q00960); assay: [3H]Ifenprodil binding assay; details: 4 nM [3H]-ifenprodil, 2 hours at room temperature, pH 7.4
T1 construct: membrane fraction was prepared from frozen adult rat forebrains; tissue Zivic-Miller Laboratories, Inc; host or cells: adult rat forebrain, buffy coat membrane fraction
Description: All buffers and reagents used in assay incubations or to dissolve drugs were prepared using water purified through a Milli-Q reverse osmosis system (Millipore Corp, Bedford, Mass.) and treated with UV emissions. Prior to use in the assays, buffers were further filtered through a sterile Corning filtration unit (Corning Glass Works, Corning, N.Y.) containing a 0.2-μm filter. Buffer used to rinse the membranes on the assay filters was prepared with purified water, but was not refiltered and was stored no longer than 5 days. Stock solutions of the drugs (usually 10 mM) were dissolved in 20 mM HEPES-KOH buffer pH 7.4 (assay buffer) with the addition of 1 to 5 μL of glacial AcOH, if needed, to keep them in solution. For eliprodil the stock solution was buffer with the addition of 10% DMSO. All subsequent dilutions from stock were made in buffer.
An extensively washed buffy coat membrane fraction was prepared from frozen adult rat forebrains (Zivic-Miller Laboratories, Inc, Zelienople, Pa.) as described previously (Coughenour L. L.; Cordon, J. J., J. Pharmacol. Exp. Ther., 1997;280:584-592) and stored at −80° C. On the day of the assay, pellets were resuspended in 35 mL of assay buffer at pH 7.4 using a Polytron setting 6. After incubation at 37° C. for 30 minutes in a shaking water bath, the homogenate was centrifuged 40,000×g for 10 minutes at 4° C. The pellets were resuspended in fresh buffer and centrifuged 3 more times before final suspension for use in the assay.
[^3H]Ifenprodil Binding. […] The filter mat was supported on a cold (−20° C.) teflon support, and filters from individual wells were separated and placed in Mini Poly-Q vials (Beckman Instruments Inc, Fullerton, Calif.) and filled with 4 mL of scintillation cocktail (Beckman Ready Protein^+). Radioactivity retained on the filter was determined by liquid scintillation spectrophotometry. […]
Data Analysis. Binding curves were statistically analyzed for a best one- or two-site competition fit using GraphPad Prism software (GraphPad Software Inc, San Diego, Calif.). […]

NR1A/NR2B = target: T2, NR1A/NR2B (Rattus norvegicus, UniProt P35439+Q00960); assay: Electrophysiological assay at NMDA receptor subunits expressed in Xenopus oocytes (two-electrode voltage clamp); format: cell-based; details: cloned rat NR1A/NR2B in Xenopus oocytes; currents activated by glutamate (100 μM) and glycine (1-100 μM); read-out: NR1A/NR2B Oocyte IC50
T2 construct: expressed in transfected cells; host or cells: Xenopus laevis oocytes injected with cRNA
Excerpt: Preparation of RNA. cDNA clones encoding the NR1A, NR2A, NR2B, and NR2C rat NMDA receptor subtypes were used. (See Moriyoshi et al., Nature, (Lond.), 1991;354:31-37); Kutsuwada et al., Nature (Lond.), 1992;358:36-41; Monyer et al., Science (Washington, D.C.), 1992;256:1217-1221; Ikeda et al., FEBS Lett., 1992;313:34-38; Ishii et al., J. Biol. Chem., 1993;268:2836-2843 for details of these clones or their mouse homologs.) The clones were transformed into appropriate host bacteria, and plasmid preparations were made with conventional DNA purification techniques. A sample of each clone was linearized by restriction enzyme digestion […] was synthesized with T3 RNA polymerase. The cRNA was diluted to 400 ng/μL and stored in 1-μL aliquots at −80° C. until injection.
The Xenopus Oocyte Expression System. […]
Electrical recordings were made using a conventional two-electrode voltage clamp (Dagan TEV-200) over periods ranging between 3 to 21 days following injection (Woodward et al., Mol. Pharmacol., 1992;41:89-103). […] Inhibitory potency of the novel antagonists was assessed on responses elicited by fixed concentrations of glutamate and glycine, by measuring reductions in current induced by progressively increasing concentrations of antagonist. […]

T1 sequence (Q00960 27-1482, other chains not shown): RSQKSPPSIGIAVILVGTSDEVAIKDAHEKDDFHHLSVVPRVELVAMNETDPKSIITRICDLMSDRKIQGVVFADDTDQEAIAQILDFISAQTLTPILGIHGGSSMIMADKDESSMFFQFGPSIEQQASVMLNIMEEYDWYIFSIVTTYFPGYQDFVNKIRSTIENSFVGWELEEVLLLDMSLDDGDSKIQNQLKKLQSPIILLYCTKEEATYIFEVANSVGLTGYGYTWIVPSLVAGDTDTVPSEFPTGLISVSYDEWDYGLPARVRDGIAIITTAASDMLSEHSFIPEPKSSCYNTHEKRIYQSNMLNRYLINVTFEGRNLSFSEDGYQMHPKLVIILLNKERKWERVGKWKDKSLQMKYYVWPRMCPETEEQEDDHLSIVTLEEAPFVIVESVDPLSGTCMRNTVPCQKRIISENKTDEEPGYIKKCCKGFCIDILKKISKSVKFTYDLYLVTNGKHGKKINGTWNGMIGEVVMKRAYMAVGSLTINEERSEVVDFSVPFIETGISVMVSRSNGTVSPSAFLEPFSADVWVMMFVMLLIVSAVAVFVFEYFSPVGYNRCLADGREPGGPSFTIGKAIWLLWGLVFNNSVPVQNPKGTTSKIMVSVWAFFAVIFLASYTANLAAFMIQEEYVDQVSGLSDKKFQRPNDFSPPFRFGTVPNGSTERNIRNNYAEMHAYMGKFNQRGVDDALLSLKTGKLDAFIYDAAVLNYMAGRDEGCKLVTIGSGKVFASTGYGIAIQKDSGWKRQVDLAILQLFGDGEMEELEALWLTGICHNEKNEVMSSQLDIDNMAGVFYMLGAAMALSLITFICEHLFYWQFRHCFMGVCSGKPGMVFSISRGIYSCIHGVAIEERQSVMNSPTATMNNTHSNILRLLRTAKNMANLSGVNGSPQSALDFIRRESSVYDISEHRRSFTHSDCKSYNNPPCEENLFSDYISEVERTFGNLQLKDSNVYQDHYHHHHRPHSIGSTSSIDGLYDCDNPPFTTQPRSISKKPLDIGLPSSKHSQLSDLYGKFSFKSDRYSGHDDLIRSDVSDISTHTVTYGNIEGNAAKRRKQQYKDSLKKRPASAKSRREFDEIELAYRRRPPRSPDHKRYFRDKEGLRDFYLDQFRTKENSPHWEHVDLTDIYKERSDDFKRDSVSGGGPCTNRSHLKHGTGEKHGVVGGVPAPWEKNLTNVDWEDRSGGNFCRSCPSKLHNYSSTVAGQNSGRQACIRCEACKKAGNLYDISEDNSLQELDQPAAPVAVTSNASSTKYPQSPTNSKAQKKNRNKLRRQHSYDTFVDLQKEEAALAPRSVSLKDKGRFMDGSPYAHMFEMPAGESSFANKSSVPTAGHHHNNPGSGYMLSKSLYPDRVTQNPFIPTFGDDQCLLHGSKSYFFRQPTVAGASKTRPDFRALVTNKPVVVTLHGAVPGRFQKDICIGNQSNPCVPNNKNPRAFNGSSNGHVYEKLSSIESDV
T2 sequence (Q00960 27-1482, other chains not shown): as above

melting point	Compound	IC50 [1]	IC50 (NR1A/NR2B)
211 to 214 °C	Oc1ccc(CCCN[C@H]2CC[C@H](c3ccccc3)CC2)cc1 [Example 1b, trans4-[3-(4-Phenylcyclohexylamino)propyl]phenol]	84 nM	
	C[C@H](N[C@H]1CC[C@@H](c2ccccc2)CC1)[C@@H](O)c1ccc(O)cc1 [Example 2b, cis-4-[(1S,2S)-1-Hydroxy-2-(4-phenylcyclohexylamino)propyl]phenol]	45 nM	150 nM
97 to 105 °C	CN(CCc1ccc(O)cc1)[C@H]1CC[C@H](c2ccccc2)CC1 (as salt: HCl) [Example 6, trans 4-{2-[Methyl(4-phenylcyclohexyl)amino]ethyl}phenol]		
238 to 241 °C	Oc1ccc(CCN[C@H]2CC[C@H](c3ccccc3)CC2)cc1 (as salt: HCl) [Example 5, trans-4-[2-(4-Phenylcyclohexylamino)ethyl]phenol]		
	C[C@H](N[C@H]1CC[C@H](c2ccccc2)CC1)[C@@H](O)c1ccc(O)cc1 [Example 2a, trans 4-[(1S,2S)-1-Hydroxy-2-(4-phenylcyclohexylamino)propyl]phenol]	1300 nM	
249 to 255 °C	CN(CCCc1ccc(O)cc1)[C@H]1CC[C@H](c2ccccc2)CC1 (as salt: HCl) [Example 4, trans-4-{3-[Methyl-(4-phenylcyclohexyl)amino]propyl}phenol]		
